test system: HepG2; assay: Cytotoxicity against human HepG2 cells; format: functional, cell-based

| Compound | IC50 |
| --- | --- |
| O=C(/C=C/c1ccc(O)c(O)c1)O[C@@H]1O[C@H](COC(=O)[C@H]2CC(=O)c3oc(=O)c4cc(O)c(O)c(O)c4c32)[C@@H](O)[C@H](O)[C@H]1O [BALANOPHOTANNIN D] | 17.4 µM |
| O=C(O[C@@H]1O[C@H](COC(=O)[C@H]2CC(=O)c3oc(=O)c4cc(O)c(O)c(O)c4c32)[C@@H](O)[C@H](OC(=O)c2cc(O)c(O)c(O)c2)[C@H]1O)c1cc(O)c(O)c(O)c1 [BALANOPHOTANNIN E] | 4.22 µM |
| O=C(O)C[C@@H]1C(=O)O[C@H]2[C@H](O)[C@@H](O)[C@H](OC(=O)/C=C/c3ccc(O)c(O)c3)O[C@@H]2COC(=O)c2cc(O)c(O)c3c2[C@H]1C(=O)O3 [BALANOPHOTANNIN F] | 48.4 µM |
| O=C(O)C[C@@]12Oc3c(O)c(O)cc(C(=O)OC[C@H]4O[C@@H](OC(=O)/C=C/c5ccc(O)c(O)c5)[C@H](O)[C@@H](O)[C@@H]4O)c3[C@@H]1[C@H](C(=O)O)OC2=O [BALANOPHOTANNIN G] | 18 µM |
| O=c1[nH]cc(F)c(=O)[nH]1 [FLUOROURACIL] | 18.7 µM |
